Reference: US20100104628A1, “METHOD OF TREATING NEUROBLASTOMA” (priority 2007, published 2010)
Where “and” joins values, the source holds several entries; their conditions need not be identical. Equal entries are not always repeated. Where two headings read alike, the source gives them in different places.

Legend:
[1] = system: SK—N-BE(2c) (high NET); experiment: Glutathione depletion in vitro, SK-N-BE(2c); type: cell-based; details: for glutathione depletion compared to controls: 7 hrs
Description: (§1) The NB cell line SK—N-BE(2c) (high net) was treated with MIBG, MIBG-disulfide dimer (MIGB-S—S-MIBG), chloromethyl-MIBG (cmMIBG), and BSO. For comparison, the human breast cancer line MCF7 (no NET) was treated with chloromethyl-MIBG and BSO. At specific times, intracellular glutathione in drug-treated cells was determined relative to that in untreated cells (control).
SK—N-BE(2c) (high NET) cells were treated with a single concentration of chloromethyl-MIBG (25 μM at t=0). Glutathione concentrations in treated and untreated cells were measured at t=0.5, 1, 2, 3 and 4 hrs. Glutathione levels in drug-treated cells progressively fell, with a concentration 50% that of control at t 4 hrs (FIG. 10B).
(§2) Cells were exposed to 5 μM chloromethyl-MIBG (cmMIBG), 25 μM BSO and a combination of 5 μM chloromethyl-MIBG+25 μM BSO (both) for 7 hrs. Compared to controls, chloromethyl-MIBG alone depleted glutathione by about 30% in SK—N—Be(2c) cells and 8% in MCF7. BSO, as expected, depleted MCF7 and SK—N—Be(2c) by similar amounts (42 and 54% of controls, respectively). In combination studies, chloromethyl-MIBG+BSO depleted levels by about 85% in the SK—N—Be(2c) cells and had much less effect on the MCF7 cells with glutathione reduced by 49% relative to controls.

[2] = system: MCF7 (no NET); experiment: Glutathione depletion in vitro, MCF7; type: cell-based, human; details: 7 hrs
Description: as §1, §2

[3] = Stability / reaction kinetics by proton NMR (half-life); type: physicochemical; details: for Half-life / Half-life w/10 eq GSH: 37° C., pH 7.4, BisTris buffer, 5% DMSO
From the text: Proton NMR was used to determine the half-lives for chloro- and bromomethyl-MIBG (Table 1). These analogs react with nucleophiles via an SN2 mechanism; therefore, the rate of the reaction depends on the strength and concentration of the nucleophile as well as the nature of the leaving group. Thus, the half-lives of the analogs are predictably longer in buffer than they are in buffer with added glutathione (a relatively strong nucleophile) and, under the same conditions, the bromo analog (better leaving group) reacts faster than the chloro analog.

[4] = target: T1, NET (Homo sapiens, UniProt P23975); experiment: NET competitive binding assay ([125I]MIBG displacement, SK-N-SH cells); details: 5 μM test compound, 2 hr incubation
T1 construct: endogenous in cells; host or cells: SK-N-SH neuroblastoma cells
Description: An assay to assess binding of various MIBG-analogs to the NET was performed by published methods (Vaidynathan et al, Nucl. Med. Commun. 25:947-955 (2004), Vaidynathan et al, Bioorg. Med. Chem. 12:1649-1656 (2004), Vaidynathan et al, Bioconjugate Chem. 12:798-806 (2001), Vaidynathan et al, Eur. J. Nucl. Med. Mol. Imaging 31:1362-1370 (2004)). In brief, neuroblastoma SK—N—SH cells (moderate levels of NET) were treated with [^125I]MIBG and with increasing concentrations of unlabeled MIBG or MIBG-analogs. At the end of a 2 hr incubation and appropriate work-up, the cell-bound radioactivity was counted. Total cell-bound radioactivity minus non-specific cell-bound radioactivity gave a value for specific binding which was plotted in FIG. 9 against the concentration of test compounds. At 5 μM, cold MIBG displaced “100%” of the labeled-MIBG (i.e., “zero” cell-bound radioactivity). At 5 μM, chloromethyl-MIBG displaced 83%; the disulfide MIBG-SS-ethyl and the ester MIBG-phenylbutyrate displaced 50-55%; and hydroxymethyl-MIBG displaced 27%.

[5] = system: SK-N-MC (NET ++); experiment: Cytotoxicity, MTT assay, SK-N-MC; type: cell-based; details: 24 hr assay, 1% EtOH
[6] = system: IMR32 (NET 0/+); experiment: Cytotoxicity, MTT assay, IMR32; type: cell-based; details: 24 hr assay, 1% EtOH
[7] = system: SK-N-BE(2c) (NET ++++); experiment: cells; type: cell-based
[8] = system: SK-N-SH (NET ++); experiment: Cytotoxicity, MTT assay, SK-N-SH; type: cell-based; details: read-out: Cytotoxicity IC50
[9] = Maximum tolerated dose (MTD) study in mice; type: in vivo
Description: The MTD study utilized 4 groups of 5 HRLN female nu/nu mice. Mice in each group were injected i.v. with a single dose of chloromethyl-MIBG in 1% DMSO in water [5, 10, 15, or 20 mg/kg (drug/animal)]. Drug solutions were made fresh at room temperature and injections were completed within 20 minutes of making the drug solution (under these conditions, the half-life of chloromethyl-MIBG was estimated to be >10 hrs). The dosing volume was 0.20 mL/20 g mouse (adjusted accordingly for body weight). Animals were followed for 21 days post-injection; body weight was monitored daily for 5 days and then biweekly. The “endpoint MTD” was defined as a mean weight loss of >20% or death of >10% of animals in a group.

[10] = system: MCF7 (NET 0); experiment: in vitro; type: cell-based, human
[11] = 24 hr assay, 1% EtOH, read-out: Cytotoxicity IC50
[12] = 24 hr assay, single agent, 1% DMSO, read-out: Cytotoxicity IC50
[13] = 48 hr assay (24 h exposure + 24 h recovery), Table 3, read-out: Cytotoxicity IC50
[14] = 48 hr assay, + 1.5 μM desipramine (40 min pre-treatment, then co-incubation), read-out: Cytotoxicity IC50, NET inhibition experiment
[15] = 48 hr assay, single agent, Table 4, read-out: Cytotoxicity IC50
[16] = 48 hr assay, without desipramine, read-out: Cytotoxicity IC50, NET inhibition experiment
[17] = 48 hr assay (24 h exposure + 24 h recovery), Table 3
[18] = groups dosed at 10, 15 and 20 mg/kg i.v.

T1 sequence (P23975 whole entry): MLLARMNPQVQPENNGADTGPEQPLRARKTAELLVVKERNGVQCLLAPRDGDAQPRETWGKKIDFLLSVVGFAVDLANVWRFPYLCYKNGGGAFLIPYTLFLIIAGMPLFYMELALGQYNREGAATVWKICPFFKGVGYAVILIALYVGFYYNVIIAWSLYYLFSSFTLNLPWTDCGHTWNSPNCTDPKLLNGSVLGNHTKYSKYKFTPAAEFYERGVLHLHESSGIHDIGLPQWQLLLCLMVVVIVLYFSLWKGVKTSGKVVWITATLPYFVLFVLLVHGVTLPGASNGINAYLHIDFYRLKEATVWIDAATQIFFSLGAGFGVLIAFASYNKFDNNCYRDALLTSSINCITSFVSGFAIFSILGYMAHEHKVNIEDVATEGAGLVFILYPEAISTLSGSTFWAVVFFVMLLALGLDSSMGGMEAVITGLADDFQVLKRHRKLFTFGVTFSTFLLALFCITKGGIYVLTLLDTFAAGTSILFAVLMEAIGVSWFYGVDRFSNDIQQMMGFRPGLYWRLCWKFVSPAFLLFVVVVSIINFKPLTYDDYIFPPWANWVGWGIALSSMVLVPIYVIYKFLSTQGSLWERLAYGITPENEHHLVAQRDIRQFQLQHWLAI

With CCCCS(=N)(=O)CCC(N)C(=O)O (stereo not drawn) [BSO, buthionine sulfoximine] the “glutathione depletion compared to controls” value ([1]; 25 μM BSO) was 54% and the “glutathione depletion compared to controls” value ([2]; 25 μM BSO) was 42%.
With N=C(N)NCc1ccc(CBr)c(I)c1 [Bromomethyl-MIBG] the Half-life [3] was 42.5 ± 0.7 min and the “Half-life w/10 eq GSH” value [3] was under 0.083 min.
For N=C(N)NCc1ccc(CCl)c(I)c1 [Chloromethyl-MIBG], the “glutathione depletion compared to controls” value ([1]; 5 μM chloromethyl-MIBG) was “about 30%”, the “glutathione concentration relative to control” value ([1]; 25 μM at t=0, measured at 4 hrs) was 50% and the “displacement of [125I]MIBG (specific cell-bound radioactivity)” value [4] was 83%. For the same compound, the IC50 [5] was 25 µM, the “half-life of drug solution” value ([3]; 1% DMSO in water, room temperature, estimated) was over 600 min and the Half-life [3] was 580 ± 25 min. The “Half-life w/10 eq GSH” value [3] was 0.843 ± 0.0533 min, the IC50 [6] was 63 µM and the IC50 [7, 11] was 5 µM. It also gave an IC50 [7, 12] of 5.7 ± 1.5 µM, an IC50 [7, 13] of 4.63 ± 1.58 µM and an IC50 [7, 14] of 14.3 ± 1.7 µM. For the same compound, the IC50 [7, 15] was 4.6 ± 1.6 µM, the IC50 [7, 16] was 3.2 ± 0.6 µM and the “increase in IC50 in presence of desipramine” value ([7]; with vs without desipramine) was about 5 fold. For the same compound, the “glutathione depletion compared to controls” value ([2]; 5 μM chloromethyl-MIBG) was 8%, the IC50 [8, 17] was 18.4 ± 9.1 µM and the IC50 ([8]; 48 hr assay, single agent, Table 4) was 18.4 ± 9.1 µM. For the same compound, the “animal deaths over the course of the study” value ([9]; 5-20 mg/kg single i.v. dose, 21 days) was “no animal deaths”, the MTD ([9]; HRLN female nu/nu mice, single i.v. dose, 21 days follow-up) was over 20 mg/kg and the “adverse signs upon drug injection” value [9, 18] was “signs of hypoactivity, labored breathing, darkening of skin color, and/or seizures/tremors”. For the same compound, the “time for adverse symptoms to go away” value [9, 18] was at most 30 s, the IC50 [10, 11] was 50 µM and the IC50 [10, 12] was 56.9 ± 6.2 µM. The IC50 [10, 13] was 14.3 ± 2.13 µM, the IC50 [10, 14] was 20.2 ± 1.9 µM and the IC50 [10, 15] was 14.3 ± 2.1 µM. It also gave an IC50 [10, 16] of 19.8 ± 1.3 µM.
In the case of N=C(N)NCc1cccc(I)c1 [MIBG, meta-iodobenzylguanidine], the IC50 [7, 12] is reported as 167 µM and 200 µM, the IC50 [7, 13] is reported as 142 ± 21 µM and the IC50 [8, 17] is reported as 190 ± 22 µM. The IC50 [10, 12] was 227 µM and 232 µM and the IC50 [10, 13] was 137 ± 27 µM.
With N=C(N)NCc1cccc([131I])c1 [MIBG, meta-iodobenzylguanidine] the “effect on glutathione levels” value ([1]; concentrations up to 25 μM, incubation up to 4 hrs) was “did not significantly affect glutathione levels” and the “displacement of [125I]MIBG (specific cell-bound radioactivity)” value [4] was 100%.
